The text below walks through data of publication PMC12267067, “Targeting GRPR for sex hormone-dependent cancer after loss of E-cadherin” (Nature, 2025).

No end group written: not given here.

The subject of this assay is YAP1 activation signature. In words: YAP1 activation signature (GSEA) and YAP1 score by RNA-seq, human melanoma cell lines. As to conditions: 4 h, 10 nM GRP. The class given is cell-based. As for the experimental part:
The transcriptome, copy-number alteration, mutations and corresponding clinical data of the TCGA–SKCM (n = 473), TCGA–BRCA (n = 1,215), TCGA–STAD (n = 450), TCGA–LUSC (n = 553) and TCGA–KIRC (n = 606) datasets were retrieved from the National Cancer Institute Genomic Data Commons repository using the TCGAbiolinks R package in August 2022 (ref. [51]). The mRNA levels were calculated from RNA-sequencing read counts using RNA-Seq V2 RSEM and normalized to TPM. Expression of CDH1, CCND1, BRAF and KRAS was modelled over time using LOWESS smoothing with 1,860 points. Expression levels from acral melanoma were retrieved from GEO under accession number GSE162682. Survival analyses were carried out by separating the cohort into two groups according to gene expression. The threshold was set to 1 TPM, commonly considered to be the limit for sufficient protein expression of the transcript. The negative group was set to an expression 0.1 TPM or less to have clear separation in terms of expression (factor 10) from the positive group. […] The scoring of YAP1 activation was determined from the expression of CYR61, CTGF, TEAD4, LATS2 and CRIM1. […] The anoikis-resistance score was calculated on the basis of the expression of S100A7A, MTPN, ATP10B, S100A8, RSAD2, RENBP, CDHR1 and CD36. The ER-activation score was calculated according to the expressions of GATA4, SDK2, EGR3, IL19, GSG1L, RSPO1, PGR, IL24 and PDZK1. […]
RNA was extracted from cells and mouse tumours using the miRNeasy kit (Qiagen, 217004), according to the manufacturer’s protocol. RNA integrity (RIN) was measured using an Agilent Bioanalyser 2100 (Agilent Technologies) and an RNA nano 6000 kit (5067-1511, Agilent Technologies). […] RNA concentrations were measured using a NanoDrop (NanoDrop Technologies). […] The libraries were equimolarly pooled and subjected to qPCR quantification using the KAPA library quantification kit (Roche). […] Reads were mapped to the mm10 mouse reference genome (gencode m13 version-GRCm38.p5) or hg38 human reference genome (gencode 42 version-GRCh38.p13) using STAR[60]. […]

“GRP: GRPR's natural agonist, endogenous ligand of GRPR (4011670 bachem) (VPLPAGGGTVLTKMYPRGNHWAVGHLM; not fully specified; ends and bridges not checked; UniProt P07492 24-50, looked up)”: the “GSEA YAP activation, GRP vs. Mock: NES” value is, setting by setting: (501mel-GRPR, FDR <0.0001) 2.07; (Dauv-1, FDR <0.0001) 2.21; (MDA-MB-435S, FDR =0.0408) 1.32.
